Data as given in patent publication US9655869B2, “Estrogen antagonists as treatments for sclerosing disorders” (University of Pittsburgh—Of The Commonwealth System Of …, priority 2009, dated 2017).

Legend:
SSc = details: references (25), (57); cited from earlier work
ERα = ERα protein in cellular lysates of skin fibroblasts (western blot); format: cell-based, human; details: for E2-induced increase of ERα: skin fibroblasts pre-treated with inhibitor 1 hr prior to E2, 48 hrs
Protocol: Skin fibroblasts (2×10^5 cells per well) were seeded in 35 mm cell culture dishes in DMEM/10% FBS. The following day, the medium was replaced with phenol-red free DMEM (Cellgro) without serum for 24 hours to deprive the cells of estrogen. Fresh phenol-red free DMEM plus 10% charcoal stripped fetal bovine serum (Hyclone, Logan, Utah) was added with one of the following: ethanol as vehicle control (0.1%) or E2 (10 nM; Sigma-Aldrich) for 24 hours (for RNA extraction) or 48 hours (for protein extraction).
Cells were grown to confluency in 35 mm culture dishes. Cells were rinsed with 1×PBS and scraped in sample buffer (20 mM dithiothreitol, 6% SDS, 0.25 M Tris, pH 6.8, 10% glycerol, 10 mM NaF and bromophenyl blue). Samples were separated by electrophoresis on 8% SDS-polacrylamide gels (National Diagnostic, Atlanta, Ga.) and transferred to nitrocellulose membranes. Membranes were blocked with 5% non-fat milk in 1×TBS-Tween20 (0.2 M Tris, 0.14 M NaCl, 0.1% Tween 20), followed by incubation with mouse monoclonal anti-human EDA-fibronectin antibody, rabbit polyclonal anti-human fibronectin antibody, rabbit polyclonal anti-ERα antibody, rabbit polyclonal anti-ERβ antibody (Santa Cruz Biotechnology, Santa Cruz, Calif.), mouse monoclonal anti-human vitronectin, mouse monoclonal anti-β-actin (Sigma-Aldrich), or mouse monoclonal anti-GAPDH (Ambion, Austin, Tex.) in 1×TBS-Tween20 followed by horseradish peroxide-conjugated donkey anti-rabbit IgG (Amersham, Piscataway, N.J.) or donkey anti-mouse IgG (Amersham). Immunoreactive proteins were detected by chemiluminescence (PerkinElmer Life Sciences, Boston, Mass.), followed by autoradiography.
We also examined the effect of the chemical inhibitors on ERα and ERβ.

fibronectin = assay: ex vivo human skin organ culture: fibronectin immunohistochemistry; details: explanted human skin, 7 days; anti-fibronectin antibody, AEC
Protocol: 6 μm sections of paraffin-embedded skin tissues were de-paraffinized, endogenous peroxidase was quenched using 10% H2O2, and endogenous biotin was blocked using the biotin blocking kit (Dakocytomation, Carpinteria, Calif.). Sections were blocked with 5% serum and incubated with anti-fibronectin antibody followed by secondary antibody. Bound secondary antibody was detected using the AEC Red kit. A light hematoxylin counterstain was used to identify nuclei. Images were taken on a Nikon Eclipse 800 microscope.
(§1) To further examine the effect of estradiol in skin tissues, dermal and collagen bundle thickness in dermis were assessed using an ex vivo organ culture system. Ex-planted skin tissues on 35-mm well plates were treated with estradiol, estrogen receptor alpha or beta agonists (PPT, genistein, respectively) or vehicles (ethanol for estraditol, PPT, DMSO for genistein, respectively) for 7 days, and skin sections were stained with hematoxylin and eosin. […] We also assessed the extent of deposition of fibronectin using immunohistochemistry. […] Thus, estradiol is an important factor for the induction of skin fibrosis, and the effect of estradiol is mediated by estrogen receptor alpha.

fibronectin (FN) = assay: FN mRNA (RT-PCR) and protein (western blot) expression in primary skin fibroblasts; format: cell-based, human; details: for FN protein levels in the ECM: primary fibroblasts treated 48 hrs, PPT 100 nM, genistein 100 nM, western blot; for E2-mediated increase of FN protein: skin fibroblasts pre-treated with inhibitor 1 hr prior to E2, western blot 48 hrs post-treatment, cellular lysates
Protocol: Skin-punch biopsies (6 mm) were obtained with informed consent from the clinically affected and unaffected skin of 6 patients with SSc and 5 healthy twins. All SSc patients had diffuse skin involvement and met the American College of Rheumatology criteria for the diagnosis of SSc (1). Biopsies were performed on the leading edge of dermal thickening and clinically normal skin. The skin samples were minced, placed in 60-mm tissue culture dishes and cultured at 37° C. in a humidified atmosphere in Dulbecco's modified Eagle's medium (DMEM) (Cellgro, Herndon, Va.) supplemented with 10% fetal bovine serum (FBS; Sigma-Aldrich, St. Louis, Mo.), 100 IU/ml penicillin, and 100 μg/ml streptomycin (Invitrogen, Carlsbad, Calif.). Skin fibroblasts (2×10^5 cells per well) were seeded in 35 mm cell culture dishes in DMEM/10% FBS. The following day, the medium was replaced with phenol-red free DMEM (Cellgro) without serum for 24 hours to deprive the cells of estrogen. […] Sigma-Aldrich) for 24 hours (for RNA extraction) or 48 hours (for protein extraction). TGF-β (10 ng/ml; R&D systems, Minneapolis, Minn.) was used as a positive control. […] Cell Signaling Technology, Beverly, Mass.) were added where indicated. To determine the role of ERα and β on FN individually, cells we cultured with propyl-pyrazole-triol (PPT), an ERα specific ligand (100 nM; Tocris), and genistein, an ERβ specific ligand (100 nM; […] Extracellular matrix (ECM) was extracted as we have previously described. (35) Briefly, cells were rinsed with PBS and incubated with 8M Urea in PBS for 20 mins. Cells were aspirated and the ECM was rinsed three times with PBS. ECM was scraped in 100 μl sample buffer (20 mM dithiothreitol, 6% SDS, 0.25 M Tris, pH 6.8, 10% glycerol, 10 mM NaF and bromophenyl blue) and analyzed by western blot. Skin fibroblasts in early passage (passages 3-4) were harvested and RNA was extracted using TRIzol (Invitrogen). mRNA was reverse transcribed using Superscript II (Invitrogen) following the manufacturer's recommendations. The cDNA generated was used as a template for amplification by PCR with primers specific for ERα [NT] ID NO:1) and […] NO:2), ERβ […] NO:3) and [NT] ID NO:4), Fibronectin, [NT] ID NO:5) and 5-[…] ID NO:6) and β-actin, […] NO:7) and [NT] ID NO:8). PCR amplification was performed in a 50 μl reaction containing 10 units of the reverse transcription reaction, Taq DNA polymerase (Invitrogen), 10×PCR buffer (750 mM Tris-HCl, pH8.8, 200 mM (NH4)2SO4 and 0.1% Tween 20), 1.5 mM MgSO4, 1 mM of each deoxynucleotide triphosphate in a Peltier Thermal Cycler-200 (MJ Research, Waltham, Mass.). Conditions were an initial denaturation at 95° C. for 4 min, followed by 35 cycles of 94° C. for 45 sec, 55° C. for 30 sec, and 68° C. for 2 min. Final extension was at 68° C. for 5 min. 20 μl of each reaction was electrophoresed on a 1% agarose gel in 1×TAE (Tris/acetate/EDTA) buffer and products were visualized following staining with ethidium bromide. Molecular weight of each PCR product: ERα 1062 bp, ERβ 934 bp, FN 513 bp and β-actin 494 bp. Cells were grown to confluency in 35 mm culture dishes. Cells were rinsed with 1×PBS and scraped in sample buffer (20 mM dithiothreitol, 6% SDS, 0.25 M Tris, pH 6.8, 10% glycerol, 10 mM NaF and bromophenyl blue). Samples were separated by electrophoresis on 8% SDS-polacrylamide gels (National Diagnostic, Atlanta, Ga.) and transferred to nitrocellulose membranes. […] Immunoreactive proteins were detected by chemiluminescence (PerkinElmer Life Sciences, Boston, Mass.), followed by autoradiography.

human skin = assay: ex vivo human skin organ culture: dermal and collagen bundle thickness; details: explanted human skin, 7 days; for collagen bundle thickness, ratio compared with vehicle / dermal thickness, ratio compared with vehicle: p<0.05, 3 experiments
Protocol: Dermal and collagen bundle thickness were measured in skin sections stained with hematoxylin and eosin.
Dermal thickness was defined as the distance from the granular layer to the junction between the dermis and subcutaneous fat. Images were taken on a Nikon Eclipse 800 microscope (Nikon Instruments, Inc., Huntley, Ill.) using identical camera settings and Image was used to measure thickness. Thickness was measured in 5 random fields in each sample.
as §1

[1] = serum half life; cited from earlier work
MCF7 = details: reference (56); read-out: 1050 in the MCF7 proliferation assay; cited from earlier work

Which “SSc symptoms / treatment outcome in SSc patients” value (SSc) does the source give for CC(=O)Oc1ccc(C(=C2CCCCC2)c2ccc(OC(C)=O)cc2)cc1 [Cyclofenil] here?
Its value is “disappointing results”.

What does the source list for C[C@]12CC[C@@H]3c4ccc(O)cc4CC[C@H]3[C@@H]1CC[C@@H]2O [E2, 17-β-Estradiol]?
ERα level (ERα; skin fibroblasts stimulated with E2 48 hrs): increased; fibronectin expression ex vivo (immunohistochemistry) (fibronectin): induce fibronectin expression; FN mRNA and protein levels (fibronectin (FN); healthy twin and SSc fibroblasts, E2 10 nM, 24 hrs (mRNA), 48 hrs (protein)): increased; FN protein levels in the ECM (fibronectin (FN); E2 10 nM): increased; collagen bundle thickness, ratio compared with vehicle (human skin): 2.62 ± 0.18 arbitrary unit; dermal thickness, ratio compared with vehicle (human skin): 1.61±0.12 arbitrary unit

What does the source list for C[C@]12CC[C@@H]3c4ccc(O)cc4C[C@@H](CCCCCCCCC[S+]([O-])CCCC(F)(F)C(F)(F)F)[C@H]3[C@@H]1CC[C@@H]2O (stereo partly drawn) [ICI 182,780, fulvestrant]?
half life [1]: approximately forty; IC50 (MCF7): ~14 nM; TGF-β-induced FN levels (fibronectin (FN); TGF-β 10 ng/ml, ICI 182,780 100 nM): did not affect; effect of E2 on FN mRNA and protein expression in presence of antagonist (fibronectin (FN); normal skin fibroblasts, E2 10 nM 48 hrs, ICI 182,780 100 nM, ECM and supernatants): blocked the effect of E2; effect of estradiol on dermal and collagen bundle thickness in presence of antagonist (human skin; E2+ICI): blocked the effect of estradiol

What does the source list for N#CC(=C(/N)Sc1ccccc1N)/C(C#N)=C(\N)Sc1ccccc1N [MEK inhibitor, U0126]?
E2-induced increase of ERα (ERα): blocked; E2-mediated increase of FN protein (fibronectin (FN)): more modest effect

For CCCc1c(-c2ccc(O)cc2)nn(-c2ccc(O)cc2)c1-c1ccc(O)cc1 [PPT, propyl-pyrazole-triol], which “collagen bundle thickness, ratio compared with vehicle” value (human skin) is on record?
The value was 1.84 ± 0.15 arbitrary unit.

What about the “dermal thickness, ratio compared with vehicle” value (human skin) of the same compound?
Its value is 1.54±0.05 arbitrary unit.

For CC/C(=C(\c1ccccc1)c1ccc(OCCN(C)C)cc1)c1ccccc1 [Tamoxifen, tamoxifen], which “SSc symptoms / treatment outcome in SSc patients” value (SSc) is on record?
Its value is “did not improve SSc symptoms”.

What does the source list for O=c1c(-c2ccc(O)cc2)coc2cc(O)cc(O)c12 [genistein]?
FN protein levels in the ECM (fibronectin (FN); E2 10 nM): modestly increased; thickening of dermis and collagen bundles (human skin; vs DMSO vehicle): did not induce thickening

Which “E2-induced increase of ERα” value (ERα) does the source give for Oc1ccc(-c2nc(-c3ccncc3)c(-c3ccc(F)cc3)[nH]2)cc1 [p38 MAPK inhibitor, SB202190] here?
Its value is “blocked”.

And the “E2-mediated increase of FN protein” value (fibronectin (FN))?
The value was “attenuated”.
